In the supplement of paper PMC10883282:

Columns and labels:
Assay in all cases: relative viability vs DMSO control (72 h) (fraction); higher = more viable cells
[1] = tested on: SK-LMS-1
Summary of the method: (§1)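 Sarcoma cell lines were seeded in 384-well plates at densities chosen for 80–90% confluence, then 24 h later given 2.5 µl of serially diluted compound drawn from source plates spanning 10 mM to 0.0002 mM. They were held 72 h at 37 °C, 5% CO2, with 0.1% DMSO vehicle and a 5 µM positive control included. Relative viability was read with ATPLite as percent growth and averaged over up to triplicate wells. Rescaling placed full at 1 and none at 0.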

[2] = tested on: G401
Summary of the method: as §1

[3] = tested on: RD-ES
Summary of the method: as §1

[4] = tested on: KHOS-NP
Summary of the method: as §1

[5] = tested on: SW872
Summary of the method: as §1

[6] = tested on: MES-SA
Summary of the method: as §1

[7] = tested on: VA-ES-BJ
Summary of the method: as §1

[8] = tested on: SW1353
Summary of the method: as §1

[9] = tested on: HT1080
Summary of the method: as §1

[10] = tested on: RD
Summary of the method: as §1

[11] = tested on: SW684
Summary of the method: as §1

[12] = tested on: SK-ES-1
Summary of the method: as §1

CO[C@H]1C[C@@H]2CC[C@@H](C)[C@@](O)(O2)C(=O)C(=O)N2CCCC[C@H]2C(=O)O[C@H]([C@H](C)C[C@@H]2CC[C@@H](OCCO)[C@H](OC)C2)CC(=O)[C@H](C)/C=C(\C)[C@@H](O)[C@@H](OC)C(=O)[C@H](C)C[C@H](C)/C=C/C=C/C=C/1C [Certican]
Conditions	relative viability
[1], 0.00017 µM	1
[1], 0.00051 µM	0.894
[1], 0.00152 µM	0.759
[1], 0.00457 µM	0.661
[1], 0.01372 µM	0.631
[1], 0.04115 µM	0.571
[1], 0.1235 µM	0.549
[1], 0.3704 µM	0.572
[1], 1.111 µM	0.564
[1], 3.333 µM	0.5489
[1], 10 µM	0.512
[2], 0.00017 µM	0.9112
[2], 0.00051 µM	0.873
[2], 0.00152 µM	0.846
[2], 0.00457 µM	0.825
[2], 0.01372 µM	0.784
[2], 0.04115 µM	0.757
[2], 0.1235 µM	0.729
[2], 0.3704 µM	0.701
[2], 1.111 µM	0.683
[2], 3.333 µM	0.668
[2], 10 µM	0.642
[3], 0.00017 µM	0.967
[3], 0.00051 µM	0.939
[3], 0.00152 µM	0.843
[3], 0.00457 µM	0.807
[3], 0.01372 µM	0.772
[3], 0.04115 µM	0.728
[3], 0.1235 µM	0.676
[3], 0.3704 µM	0.658
[3], 1.111 µM	0.598
[3], 3.333 µM	0.552
[3], 10 µM	0.488
[4], 0.00017 µM	1.05
[4], 0.00051 µM	1.07
[4], 0.00152 µM	1.07
[4], 0.00457 µM	1.05
[4], 0.01372 µM	1.03
[4], 0.04115 µM	1
[4], 0.1235 µM	1.02
[4], 0.3704 µM	1.04
[4], 1.111 µM	1.03
[4], 3.333 µM	1.02
[4], 10 µM	0.824
[5], 0.00017 µM	0.922
[5], 0.00051 µM	0.774
[5], 0.00152 µM	0.6659
[5], 0.00457 µM	0.645
[5], 0.01372 µM	0.611
[5], 0.04115 µM	0.592
[5], 0.1235 µM	0.574
[5], 0.3704 µM	0.561
[5], 1.111 µM	0.567
[5], 3.333 µM	0.584
[5], 10 µM	0.584
[6], 0.00017 µM	0.862
[6], 0.00051 µM	0.803
[6], 0.00152 µM	0.608
[6], 0.00457 µM	0.489
[6], 0.01372 µM	0.422
[6], 0.04115 µM	0.398
[6], 0.1235 µM	0.378
[6], 0.3704 µM	0.373
[6], 1.111 µM	0.377
[6], 3.333 µM	0.358
[6], 10 µM	0.332
[7], 0.00017 µM	0.934
[7], 0.00051 µM	0.855
[7], 0.00152 µM	0.643
[7], 0.00457 µM	0.604
[7], 0.01372 µM	0.529
[7], 0.04115 µM	0.494
[7], 0.1235 µM	0.482
[7], 0.3704 µM	0.478
[7], 1.111 µM	0.468
[7], 3.333 µM	0.47
[7], 10 µM	0.46
[8], 0.00017 µM	0.915
[8], 0.00051 µM	0.875
[8], 0.00152 µM	0.855
[8], 0.00457 µM	0.772
[8], 0.01372 µM	0.76
[8], 0.04115 µM	0.746
[8], 0.1235 µM	0.708
[8], 0.3704 µM	0.71
[8], 1.111 µM	0.696
[8], 3.333 µM	0.677
[8], 10 µM	0.6966
[9], 0.00017 µM	1.04
[9], 0.00051 µM	1.04
[9], 0.00152 µM	1.09
[9], 0.00457 µM	1.09
[9], 0.01372 µM	1.08
[9], 0.04115 µM	0.985
[9], 0.1235 µM	0.998
[9], 0.3704 µM	1.02
[9], 1.111 µM	1.01
[9], 3.333 µM	1.01
[9], 10 µM	0.922
[10], 0.00017 µM	1.09
[10], 0.00051 µM	1.09
[10], 0.00152 µM	0.964
[10], 0.00457 µM	0.888
[10], 0.01372 µM	0.848
[10], 0.04115 µM	0.8231
[10], 0.1235 µM	0.773
[10], 0.3704 µM	0.7358
[10], 1.111 µM	0.73
[10], 3.333 µM	0.71
[10], 10 µM	0.657
[11], 0.00017 µM	1.08
[11], 0.00051 µM	1.125
[11], 0.00152 µM	1.069
[11], 0.00457 µM	1.03
[11], 0.01372 µM	0.914
[11], 0.04115 µM	0.829
[11], 0.1235 µM	0.844
[11], 0.3704 µM	0.813
[11], 1.111 µM	0.83
[11], 3.333 µM	0.872
[11], 10 µM	0.807
[12], 0.00017 µM	1
[12], 0.00051 µM	1.01
[12], 0.00152 µM	0.983
[12], 0.00457 µM	0.774
[12], 0.01372 µM	0.694
[12], 0.04115 µM	0.648
[12], 0.1235 µM	0.592
[12], 0.3704 µM	0.55
[12], 1.111 µM	0.552
[12], 3.333 µM	0.533
[12], 10 µM	0.499

CC1(COc2ccc3c(c2)ncn3-c2ccc3cccc(N4CCC(N)CC4)c3n2)COC1 [Crenolanib]
Conditions	relative viability
[1], 0.00017 µM	0.98
[1], 0.00051 µM	1.05
[1], 0.00152 µM	1.036
[1], 0.00457 µM	1.04
[1], 0.01372 µM	1.03
[1], 0.04115 µM	1.03
[1], 0.1235 µM	1.07
[1], 0.3704 µM	1.02
[1], 1.111 µM	0.967
[1], 3.333 µM	0.8
[1], 10 µM	0.0424
[2], 0.00017 µM	0.968
[2], 0.00051 µM	0.935
[2], 0.00152 µM	0.951
[2], 0.00457 µM	0.942
[2], 0.01372 µM	0.955
[2], 0.04115 µM	0.981
[2], 0.1235 µM	0.972
[2], 0.3704 µM	0.99
[2], 1.111 µM	0.95
[2], 3.333 µM	0.934
[2], 10 µM	0.0201
[3], 0.00017 µM	0.949
[3], 0.00051 µM	0.958
[3], 0.00152 µM	0.957
[3], 0.00457 µM	0.975
[3], 0.01372 µM	0.958
[3], 0.04115 µM	0.969
[3], 0.1235 µM	0.97
[3], 0.3704 µM	0.994
[3], 1.111 µM	0.915
[3], 3.333 µM	0.359
[3], 10 µM	0.255
[4], 0.00017 µM	1.05
[4], 0.00051 µM	1.03
[4], 0.00152 µM	1.02
[4], 0.00457 µM	1.05
[4], 0.01372 µM	1.03
[4], 0.04115 µM	1.01
[4], 0.1235 µM	0.998
[4], 0.3704 µM	0.946
[4], 1.111 µM	0.765
[4], 3.333 µM	0.605
[4], 10 µM	0.511
[5], 0.00017 µM	1.03
[5], 0.00051 µM	1.01
[5], 0.00152 µM	1.03
[5], 0.00457 µM	1.06
[5], 0.01372 µM	1.05
[5], 0.04115 µM	1.02
[5], 0.1235 µM	1.01
[5], 0.3704 µM	0.988
[5], 1.111 µM	0.95
[5], 3.333 µM	0.786
[5], 10 µM	0.0216
[6], 0.00017 µM	0.919
[6], 0.00051 µM	0.919
[6], 0.00152 µM	0.9274
[6], 0.00457 µM	0.971
[6], 0.01372 µM	0.9531
[6], 0.04115 µM	0.94
[6], 0.1235 µM	0.98
[6], 0.3704 µM	1.05
[6], 1.111 µM	1.03
[6], 3.333 µM	0.475
[6], 10 µM	0.0499
[7], 0.00017 µM	1.03
[7], 0.00051 µM	1.02
[7], 0.00152 µM	1.04
[7], 0.00457 µM	1.04
[7], 0.01372 µM	1.05
[7], 0.04115 µM	1.08
[7], 0.1235 µM	1.09
[7], 0.3704 µM	1.11
[7], 1.111 µM	0.961
[7], 3.333 µM	0.466
[7], 10 µM	0.108
[8], 0.00017 µM	0.968
[8], 0.00051 µM	0.959
[8], 0.00152 µM	0.938
[8], 0.00457 µM	0.97
[8], 0.01372 µM	0.949
[8], 0.04115 µM	0.917
[8], 0.1235 µM	0.92
[8], 0.3704 µM	0.84
[8], 1.111 µM	0.813
[8], 3.333 µM	0.683
[8], 10 µM	0.009
[9], 0.00017 µM	1.01
[9], 0.00051 µM	1.03
[9], 0.00152 µM	1.04
[9], 0.00457 µM	1.03
[9], 0.01372 µM	1.02
[9], 0.04115 µM	1.02
[9], 0.1235 µM	1.02
[9], 0.3704 µM	1.05
[9], 1.111 µM	1.04
[9], 3.333 µM	0.811
[9], 10 µM	0.0545
[10], 0.00017 µM	1.02
[10], 0.00051 µM	1.05
[10], 0.00152 µM	1.04
[10], 0.00457 µM	1.05
[10], 0.01372 µM	1.07
[10], 0.04115 µM	1.05
[10], 0.1235 µM	1.06
[10], 0.3704 µM	1.1
[10], 1.111 µM	1.11
[10], 3.333 µM	0.955
[10], 10 µM	0.02007
[11], 0.00017 µM	1.02
[11], 0.00051 µM	1.05
[11], 0.00152 µM	1.08
[11], 0.00457 µM	1.04
[11], 0.01372 µM	1.04
[11], 0.04115 µM	1.05
[11], 0.1235 µM	1.08
[11], 0.3704 µM	1.1
[11], 1.111 µM	1.15
[11], 3.333 µM	0.978
[11], 10 µM	0.423
[12], 0.00017 µM	0.997
[12], 0.00051 µM	0.993
[12], 0.00152 µM	1.01
[12], 0.00457 µM	1.05
[12], 0.01372 µM	1.02
[12], 0.04115 µM	1.02
[12], 0.1235 µM	1.014
[12], 0.3704 µM	0.949
[12], 1.111 µM	0.675
[12], 3.333 µM	0.188
[12], 10 µM	0.0214
